Experimental data published in patent US9334285B2, “Aldosterone synthase inhibitors” (Boehringer Ingelheim International GmbH, priority 2014, dated 2016).
pIC50: −log10 of the molar value. Where two headings read alike, the source gives them in different places.

Tests used:
CYP19A1 = molecular target: T1, CYP19A1 (Homo sapiens, UniProt P11511); experiment: Inhibition of CYP19A1 (Kragie et al.); type: biochemical
T1 sequence (P11511 1-503): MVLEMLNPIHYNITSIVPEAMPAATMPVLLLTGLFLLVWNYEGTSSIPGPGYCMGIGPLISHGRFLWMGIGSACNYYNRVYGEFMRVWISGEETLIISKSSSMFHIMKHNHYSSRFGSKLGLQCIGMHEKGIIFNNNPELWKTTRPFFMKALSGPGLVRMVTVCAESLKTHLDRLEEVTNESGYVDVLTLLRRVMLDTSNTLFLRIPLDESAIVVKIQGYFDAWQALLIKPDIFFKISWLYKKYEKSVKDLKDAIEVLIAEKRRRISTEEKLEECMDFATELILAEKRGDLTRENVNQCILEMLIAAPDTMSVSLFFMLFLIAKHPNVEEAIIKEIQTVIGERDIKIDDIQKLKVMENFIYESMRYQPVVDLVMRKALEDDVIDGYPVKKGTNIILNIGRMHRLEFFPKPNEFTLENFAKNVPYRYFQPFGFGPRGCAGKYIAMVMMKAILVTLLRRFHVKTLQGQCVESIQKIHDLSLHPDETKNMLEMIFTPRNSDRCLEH

rhCYP17A1 = molecular target: T2, rhCYP17A1 (Homo sapiens, UniProt P05093); experiment: Inhibition of CYP17A1, progesterone to 17-α-hydroxyprogesterone, mass spectrometry; type: biochemical
T2 construct: purchased Cypex
T2 sequence (P05093 1-508): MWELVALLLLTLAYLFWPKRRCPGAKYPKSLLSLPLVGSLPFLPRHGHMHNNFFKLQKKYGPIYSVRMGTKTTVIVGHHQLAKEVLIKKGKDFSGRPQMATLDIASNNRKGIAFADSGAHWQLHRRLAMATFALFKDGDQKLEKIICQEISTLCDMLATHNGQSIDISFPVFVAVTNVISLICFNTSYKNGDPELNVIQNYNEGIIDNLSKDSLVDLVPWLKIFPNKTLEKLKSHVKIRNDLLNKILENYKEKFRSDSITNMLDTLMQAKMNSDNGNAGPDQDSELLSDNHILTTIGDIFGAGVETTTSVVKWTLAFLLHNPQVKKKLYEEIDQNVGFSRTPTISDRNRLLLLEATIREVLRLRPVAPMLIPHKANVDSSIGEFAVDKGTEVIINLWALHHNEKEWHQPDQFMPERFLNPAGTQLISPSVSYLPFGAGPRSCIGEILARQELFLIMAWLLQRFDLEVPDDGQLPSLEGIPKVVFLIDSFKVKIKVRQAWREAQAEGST
Procedure: Compounds of the invention may also be evaluated for inhibition of CYP17A1 via the following assay:
Reactions are started by the addition of NADPH to 1 mM and allowed to proceed for 15 minutes at 37° C. Reactions are terminated by the addition of 40 μL of MeCN containing an internal standard for mass spectrometry. The plates are centrifuged at 3000 rpm for 5 min and the reaction product 17-α-hydroxyprogesterone is quantified by mass spectrometry. To determine the assay blank value (0% activity), NADPH is omitted from some reactions.
(§1) Dose dependent inhibition is quantified by the inclusion of compound at various concentrations. Maximum activity (100%) is defined by reactions containing NADPH, but without compound.

[1] = molecular target: cortisol synthase (CYP11B1) (Macaca fascicularis, UniProt A0A2K5ULY1); experiment: Inhibition of cortisol synthesis, cynomolgus adrenal mitochondria, 11-deoxycortisol as substrate; type: biochemical, cynomolgus monkey; settings: 150 units of CYP11B1, 11-deoxycortisol as substrate
Procedure: The aldosterone synthase and cortisol synthase inhibition assays employ cynomolgus adrenal gland mitochondria as the source of aldosterone synthase (CYP11B2) and cortisol synthase (CYP11B1). Mitochondria are prepared from frozen cynomolgus monkey adrenal glands according to Method A described in by J. D. McGarry et al. (Biochem. J., 1983, 214, 21-28), with a final resuspension in the AT buffer described in R. Yamaguchi et al. (Cell Death and Differentiation, 2007, 14, 616-624), frozen as aliquots in liquid nitrogen and stored at −80° C. until use. One unit of CYP11B2 and CYP11B1 activity in these preparations is defined as the amount of enzyme that generates 1 pmol of product in one hour under the conditions described.
Assays are performed as for aldosterone synthase except for the use of 150 units of CYP11B1, 11-deoxycortisol as substrate and cortisol measured as product.

[2] = molecular target: T3, aldosterone synthase (CYP11B2) (Macaca fascicularis, UniProt A0A2K5UPL9); experiment: Inhibition of aldosterone synthase, cynomolgus adrenal mitochondria, aldosterone quantified by mass spectrometry; type: biochemical, cynomolgus monkey; settings: 2 μM corticosterone, 90 minutes at 37° C.
T3 construct: employ cynomolgus adrenal gland mitochondria as the source of aldosterone synthase (CYP11B2); from tissue; host or cells: cynomolgus monkey adrenal gland mitochondria
T3 sequence (A0A2K5UPL9 1-503): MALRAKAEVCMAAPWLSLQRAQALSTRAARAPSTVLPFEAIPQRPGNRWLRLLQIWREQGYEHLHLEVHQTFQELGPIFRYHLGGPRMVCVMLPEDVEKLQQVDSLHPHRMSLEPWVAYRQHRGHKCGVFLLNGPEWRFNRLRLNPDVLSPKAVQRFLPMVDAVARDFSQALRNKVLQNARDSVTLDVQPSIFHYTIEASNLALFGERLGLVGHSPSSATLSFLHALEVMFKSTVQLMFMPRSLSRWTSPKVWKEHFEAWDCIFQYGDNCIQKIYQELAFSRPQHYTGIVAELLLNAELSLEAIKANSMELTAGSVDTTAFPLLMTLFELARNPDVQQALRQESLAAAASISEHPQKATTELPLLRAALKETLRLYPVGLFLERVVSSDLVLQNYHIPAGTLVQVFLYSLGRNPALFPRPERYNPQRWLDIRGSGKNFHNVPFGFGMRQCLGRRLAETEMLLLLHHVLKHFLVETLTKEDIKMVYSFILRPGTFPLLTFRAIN
Procedure: The aldosterone synthase and cortisol synthase inhibition assays employ cynomolgus adrenal gland mitochondria as the source of aldosterone synthase (CYP11B2) and cortisol synthase (CYP11B1). […] One unit of CYP11B2 and CYP11B1 activity in these preparations is defined as the amount of enzyme that generates 1 pmol of product in one hour under the conditions described.
The compounds of the invention may be evaluated for aldosterone synthase inhibition by the following assay:
Assays are performed in 96-well format in a final volume of 60 microL/well, containing 100 mM potassium phosphate, pH 7.4, 1% (v/v) DMSO, and additionally, 2 μM of corticosterone and 50 units of CYP11B2 activity. Reactions are started by the addition of NADPH to 1 mM and allowed to proceed for 90 minutes at 37° C. Reactions are terminated by the addition of 60 μL of MeCN containing an internal standard for mass spectrometry. One hundred microliters are then transferred to a glass filter plate and centrifuged at 570×g for 5 minutes and the filtrate is collected. Reaction product aldosterone is quantified by mass spectrometry. To determine the assay blank value (0% activity), NADPH is omitted from some reactions.
as §1

[3] = Cortisol Inhibition IC50, cynomolgus adrenal mitochondria
[4] = rhCYP17A1, 150 nM progesterone, 15 minutes at 37° C., read-out: CYP17A1 IC50
[5] = cynomolgus adrenal mitochondria, read-out: Cortisol Inhibition IC50

Row | SMILES | pIC50 [2] | pIC50 (CYP19A1; read-out: CYP19A1 IC50) | pIC50 (rhCYP17A1; [4]) | pIC50 [1, 5] | pIC50 (CYP19A1) | pIC50 (rhCYP17A1) | pIC50 [1, 3] | pIC50 (rhCYP17A1; read-out: CYP17A1 IC50, rhCYP17A1, 150 nM progesterone, 15 minutes at 37° C.)
1 | N#Cc1ccc(-n2cnc3c2C(=O)OC(CO)C3)cc1Cl (single isomer, unassigned) [Compound 33A, 2-chloro-4-[6-(hydroxymethyl)-4-oxo-3H,4H,6H,7H-pyrano[3,4-d]imidazol-3-yl]benzonitrile] | 7.05 |  |  |  | < 4.70 | < 4.70 | 4.35 | 
2 | Cc1cc(-n2cnc3c2C(=O)OC(C)(CO)C3)ccc1C#N (single isomer, unassigned) [Compound 39B, 4-[6-(hydroxymethyl)-6-methyl-4-oxo-3H,4H,6H,7H-pyrano[3,4-d]imidazol-3-yl]-2-methylbenzonitrile] | 7.89 | < 4.70 | < 4.70 |  |  |  | 5.07 | 
3 | CC1(C=O)Cc2ncn(-c3ccc(C#N)c(Cl)c3)c2C(=O)O1 (centres unmarked) [Compound 43, 2-Chloro-4-(6-formyl-6-methyl-4-oxo-6,7-dihydro-4H-pyrano[3,4-d]imidazol-3-yl)-benzonitrile] | 6.27 | < 4.70 | < 4.70 |  |  |  | < 4.52 | 
4 | CC1(C)Cc2ncn(-c3ccc(C#N)c(Cl)c3)c2C(=O)O1 [Compound 6, 2-chloro-4-{6,6-dimethyl-4-oxo-3H,4H,6H,7H-pyrano[3,4-d]imidazol-3-yl}benzonitrile] | 8.28 | < 4.70 | < 4.70 |  |  |  | 5.60 | 
5 | CC1Cc2ncn(-c3ccc(C#N)cc3)c2C(=O)O1 (single isomer, unassigned) [Compound 16B, 4[6-methyl-4-oxo-3H,4H,6H,7H-pyrano[3,4-d]imidazol-3-yl]benzonitrile] | 6.80 | < 4.70 | < 4.70 | 4.46 |  |  |  | 
6 | N#Cc1ccc(-n2cnc3c2C(=O)OC(CO)C3)cc1Cl (single isomer, unassigned) [Compound 33B, 2-chloro-4-[6-(hydroxymethyl)-4-oxo-3H,4H,6H,7H-pyrano[3,4-d]imidazol-3-yl]benzonitrile] | 7.57 | < 4.70 |  |  |  |  | 4.85 | < 4.70
7 | Cc1cc(-n2cnc3c2C(=O)OC(C)(C)C3)ccc1C#N [Compound 11, 4-{6,6-dimethyl-4-oxo-3H,4H,6H,7H-pyrano[3,4-d]imidazol-3-yl}-2-methylbenzonitrile] | 8.31 | < 4.70 | < 4.70 | 6.23 |  |  |  | 
8 | C[C@]1(CO)Cc2ncn(-c3ccc(C#N)c(Cl)c3)c2C(=O)O1 (single isomer, unassigned) [Compound 29A] | 7.80 | < 4.70 | < 4.70 |  |  |  | 5.33 | 

Second part, led by results:

Row | pIC50 [2] | pIC50 (CYP19A1; read-out: CYP19A1 IC50) | pIC50 (rhCYP17A1; [4]) | pIC50 [1, 5] | SMILES | pIC50 (CYP19A1) | pIC50 (rhCYP17A1) | pIC50 [1, 3] | pIC50 (rhCYP17A1; read-out: CYP17A1 IC50, rhCYP17A1, 150 nM progesterone, 15 minutes at 37° C.)
9 | 7.12 | < 4.70 | < 4.70 | 4.80 | CC1(C)Cc2ncn([C@H]3CC[C@H](C#N)CC3)c2C(=O)O1 [Compound 28, trans-4-(6,6-Dimethyl-4-oxo-6,7-dihydro-4H-pyrano[3,4-d]imidazol-3-yl)-cyclohexanecarbonitrile] |  |  |  | 
10 | 7.77 | < 4.70 | < 4.70 | 5.39 | CC1(C)Cc2ncn(-c3ccc(C#N)cc3Cl)c2C(=O)O1 [Compound 18, 3-chloro-4-{6,6-dimethyl-4-oxo-3H,4H,6H,7H-pyrano[3,4-d]imidazol-3-yl}benzonitrile] |  |  |  | 
11 | 7.49 | < 4.70 | < 4.70 | 5.62 | CC1(C)Cc2ncn(-c3ccc(Cl)cc3)c2C(=O)O1 [Compound 9, 3-(4-chlorophenyl)-6,6-dimethyl-3H,4H,6H,7H-pyrano[3,4-d]imidazol-4-one] |  |  |  | 
12 | 7.64 | < 4.70 | < 4.70 | 5.44 | Cc1cc(C#N)ccc1-n1cnc2c1C(=O)OC(C)(CO)C2 (single isomer, unassigned) [Compound 31A, 4-[6-(hydroxymethyl)-6-methyl-4-oxo-3H,4H,6H,7H-pyrano[3,4-d]imidazol-3-yl]-3-methylbenzonitrile] |  |  |  | 
13 | 7.55 | < 4.70 | < 4.70 | 5.05 | CC1(CO)Cc2ncn(-c3ccc(Cl)c(Cl)c3)c2C(=O)O1 (single isomer, unassigned) [Compound 30A, 3-(3,4-dichlorophenyl)-6-(hydroxymethyl)-6-methyl-3H,4H,6H,7H-pyrano[3,4-d]imidazol-4-one] |  |  |  | 
14 | 7.15 | < 4.70 | 4.82 | 4.62 | CC1(CO)Cc2ncn(-c3cccc(Cl)c3F)c2C(=O)O1 (single isomer, unassigned) [Compound 35A, 3-(3-chloro-2-fluorophenyl)-6-(hydroxymethyl)-6-methyl-3H,4H,6H,7H-pyrano[3,4-d]imidazol-4-one] |  |  |  | 
15 | 6.92 | < 4.70 | < 4.70 | 4.72 | CC1(CO)Cc2ncn(-c3cccc(F)c3Cl)c2C(=O)O1 (single isomer, unassigned) [Compound 34B, 3-(2-chloro-3-fluorophenyl)-6-(hydroxymethyl)-6-methyl-3H,4H,6H,7H-pyrano[3,4-d]imidazol-4-one] |  |  |  | 
16 | 8.07 |  |  | 5.22 | CC1Cc2ncn(-c3ccc(Cl)c(Cl)c3)c2C(=O)O1 (centres unmarked) [Compound 41, 3-(3,4-dichlorophenyl)-6-methyl-3H,4H,6H,7H-pyrano[3,4-d]imidazol-4-one] |  |  |  | 
